Patent US20170073659A1, “NOVEL LYSYL TRNA SYNTHETASE FRAGMENT AND MICROVESICLES COMPRISING SAME” (Medicinal Bioconvergence Research Center, priority 2014, published 2017)
Residues, ends and D or L forms follow the SMILES beside them. *: point of attachment. Cbz = O=C(OCc1ccccc1)*; CH2F = FC*

Columns and labels:
HCT116 cells [1] = test: KRS secretion test (TCA precipitation, western blot); format: cell-based; details: for KRS secretion after caspase inhibitor treatment: HCT116 cells, serum starvation media, inhibitor 14 uM, 12 hr, anti-KRS antibody; for secretion of KRS variant compared with WT: myc-tagged variant transfected into HCT116 cells, serum starvation 12 hr, anti-myc antibody
Experimental: HCT116 cells were incubated in RPMI media containing 10% FBS (Hyclone), and were grown to 60% confluency on 60-mm dish. The cells were washed twice with PBS, incubated in serum-free RPMI media, and treated with 10 ng/ml TNF-α for 12 hr. The supernatant of the cell culture liquid was cautiously collected, followed by centrifugation at 500 g for 10 min. The supernatant thus obtained was again centrifuged at 10,000 g for 30 min, thereby removing membrane organelles. Then, 12% TCA was added to the supernatant, followed by culture at 4° C. for 12 hr, so the supernatant was subjected to precipitation treatment. After the precipitation treatment, the supernatant was centrifuged at 18,000 g for 15 min, and the upper part was then discarded and the remaining pellets were neutralized with 100 mM HEPES (pH 8.0), and then 5× sample buffer was added to perform separation using SDS-PAGE. The products separated by SDS-PAGE were western blotted using anti-KRS antibody.

KRS and syntenin-1 [2] = test: KRS-syntenin-1 interaction by immunoprecipitation and western blot; format: cell-based; details: for binding of KRS variant with syntenin-1 compared with WT: myc-tagged variant transfected into cells, immunoprecipitation and western blot
Experimental: For immunoprecipitation, the cells were lysed at 4° C. in 50 mM HEPES (pH 7.4) buffer containing 150 mM NaCl, 0.5% NP-40, 2 mM EDTA, 5% glycerol and protease inhibiting agent (Calbiochem, San Diego, Calif., USA). Protein extracts were cultured together with protein-specific antibodies thereagainst with stirring at 4° C. In addition, protein G agarose was added. 4 hr after the addition of the protein G agarose, precipitate samples were obtained by centrifugation. The precipitate samples were washed three times for 5 min using cool lysis buffer. The precipitates were separated by SDS-PAGE.

KRS and syntenin-1 [3] = test: Bimolecular fluorescence complementation (BiFC) assay; format: cell-based; details: KRS-VN173 and syntenin-1-VC155 transfected cells, serum starvation 4 hr
Experimental: KRS-VN173 plasmid and syntenin-1-VC155 plasmid were all transduced in HCT116 cells, and the cells were incubated in starvation condition or serum-free condition for 4 hr. The HCT116 cells were located on 9-mm coverslip, fixed using 4% paraformaldehyde, and washed shortly with cool PBS. The cells were incubated in 5% BSA blocking buffer for 1 hr, and DAPI stained for 10 min. The cells were washed six times with cool PBS five times for 5 min for each time, and then mounted on slide glass. Thereafter, the samples were observed using confocal laser scanning microscope A1 (Nikon).

HCT116 cells [4] = test: KRS exosome secretion (exosomes isolated at 100,000 g, western blot); format: cell-based; details: for exosome secretion of KRS variant compared with WT: myc-tagged variant transfected into HCT116 cells, serum starvation 12 hr
Experimental: HCT116 cells were incubated for a predetermined period of time in each treatment condition (especially, serum-starvation condition), and then the media were separated and consecutively centrifuged. Centrifugation was conducted three times at 500 g (10 min), 10,000 g (30 min), and 100,000 g (90 min) to form microvesicle pellets. The amount of microvesicle proteins was determined by using Bradford assay.

RAW264.7 cells [5] = test: TNF-alpha secretion ELISA assay; format: cell-based; details: RAW 264.7 cells; 100 nM KRS proteins or KRS exosomes 0.05, 0.5, 5 ug
Experimental: RAW264.7 cells (2×10^4) were incubated in 24-well plate containing DMEM supplemented with 10% FBS and 1% antibiotic for 12 hr, and starved in serum starvation media for 2 hr. 100 nM KRS protein (WT, ▴N12 each) and KRS exosomes (0.05, 0.5, 5 ug) were added, followed by treatment for 6 hr. Thereafter, cell media were collected by centrifugation at 3,000 g for 5 min. TNF-alpha secreted from the cells was detected using the TNF-alpha ELISA kit (Pharmingen, BD Science) according to the manufacturer's protocol.

RAW264.7 cells [6] = test: Wound healing assay; format: cell-based; details: RAW 264.7 monolayer; 100 nM KRS proteins or KRS exosomes 0.05, 0.5, 5 ug; 12 hr
Experimental: RAW264.7 cells were dispensed on the coverslip, and grown to >95% confluency. Subsequently, the RAW 264.7 monolayer was scratched to create wounds, and then the wounds were treated with 100 nM KRS proteins (WT, ▴N12) or KRS exosomes (0.05, 0.5, 5 ug) in their respective concentrations, followed by incubation for 12 hr. The cell morphology of cells was observed using microscopy.

RAW264.7 cells [7] = test: Luminex screening assays (bead-based multiplex kits); format: cell-based; details: 100 nM KRS proteins or KRS exosomes 5 ug/ml; 12 hr
Experimental: RAW264.7 cells were incubated in 12-well plate using DMEM media containing 10% FBS and 1% antibiotic for 12 hr, and starved in serum starvation media for 2 hr. KRS proteins (WT, ▴N12 each) and KRS exosomes (5 ug) in different amounts were respectively added to the media. After 12 hr, conditioned media were collected, and spun down through centrifugation at 3,000 g for 10 min. For multiplex assay, premixed beads for TNF-alpha, mCRG-2, IL-6, mIL-lbeta, mIL-12, mIL-10, MMP9, INF-gamma, mMIP3a, and CXCL10 were purchased from R&D Science, and used according to the manufacturer's protocol. Each sample were analyzed by BioRad Bioplex 200 system and software.

Cytokine activity of KRS = details: WT compared with N-terminus truncated KRS
HCT116 cells [8] = test: KRS cleavage in cells (GFP-KRS, western blot with anti-GFP antibody); format: cell-based
Experimental: The cells were lysed with 50 mM Tris-HCl (pH 7.4) buffer containing 150 mM NaCl, 10 mM NaF, 12 mM beta-glycerophosphate, 1 mM EDTA, 1% NP-40, 10% glycerol, and protease inhibiting agent. Then, the supernatant was dissolved in SDS sample buffer, followed by separation using SDS-PAGE. For immunoblotting of endogenous KRS, anti-KRS antibody was used. Antibodies against Hsp90, syntenin-1, GFP, myc, caspase-3, -6, -8, -9, while syntenin-1 were purchased from Santa Cruz, and antibodies against alix were purchased from Cell Signaling. The anti-KRS antibody was manufactured by ordinary procedures in which KRS protein (Genbank Accession No. NP_005539.1) represented by SEQ ID NO: 2 was injected into New Zealand white rabbits to induce immune response and their antibodies were obtained.

For Z-VAD-VEID [caspase-6 inhibitor], the “KRS secretion after caspase inhibitor treatment” value (HCT116 cells [1]) was “only caspase-8 inhibitor inhibited KRS secretion”.
For Z-VAD-IETD [caspase-8 inhibitor], the “KRS secretion after caspase inhibitor treatment” value (HCT116 cells [1]) was “inhibited KRS secretion”, the “binding between KRS and syntenin increased by starvation” value (KRS and syntenin-1 [2]; serum starvation medium with or without caspase-8 inhibiting agent, IP of syntenin-1, anti-KRS western blot) was “reduced” and the “BiFC fluorescence (KRS-syntenin binding)” value (KRS and syntenin-1 [3]) was “not observed”.
For “▴c5: deletion mutant KRS with truncated C-terminus, 1-592 a.a of SEQ ID NO: 2”, the “secretion of KRS variant compared with WT” value (HCT116 cells [1]) was “less”, the “binding of KRS variant with syntenin-1 compared with WT” value (KRS and syntenin-1 [2]) was “significantly deteriorated” and the “exosome secretion of KRS variant compared with WT” value (HCT116 cells [4]) was “reduced”.
For “si-KRS: si-RNA against KRS from Invitrogen: GGGAAGACCCAUACCCACACAAGUU, AACUUGUGUGGGUAUGGGUCUUCCC (chemistry not given here)”, the “KRS proteins existing in the exosome” value (HCT116 cells [4]; exosomes purified from si-RNA treated cells, 48 hr then serum starvation 12 hr, vs si-con) was “reduced”.
With “KRS WT: full-length human lysyl tRNA synthetase (1-597), SEQ ID NO: 2” the “TNF-alpha secretion from macrophages” value (RAW264.7 cells [5]) was “increasing TNF-alpha secretion”, the “migration of macrophages (wound-healing assay)” value (RAW264.7 cells [6]) was “increased” and the “secretion of IL-6 from macrophages” value (RAW264.7 cells [7]) was “induced”. The “secretion of MMP9 from macrophages” value (RAW264.7 cells [7]) was “induced”, the “secretion of TNF-alpha from macrophages (luminex)” value (RAW264.7 cells [7]) was “induced” and the “secretion of mCRG-2 from macrophages” value (RAW264.7 cells [7]) was “induced”. For the same compound, the cytokine activity (Cytokine activity of KRS) was “identical”.
With “▴N12: KRS fragment 13-597 a.a., the peptide of SEQ ID NO: 1, first 12 N-terminal amino acids deleted” the “TNF-alpha secretion from macrophages” value (RAW264.7 cells [5]) was “increasing TNF-alpha secretion”, the “migration of macrophages (wound-healing assay)” value (RAW264.7 cells [6]) was “increased” and the “secretion of IL-6 from macrophages” value (RAW264.7 cells [7]) was “induced”. For the same compound, the “secretion of MMP9 from macrophages” value (RAW264.7 cells [7]) was “induced”, the “secretion of TNF-alpha from macrophages (luminex)” value (RAW264.7 cells [7]) was “induced” and the “secretion of mCRG-2 from macrophages” value (RAW264.7 cells [7]) was “induced”. The cytokine activity (Cytokine activity of KRS) was “identical”.
For “D12A mutant: variant in which Asp, 12th amino acid of KRS WT, is replaced with Ala; not cleaved by caspase-8”, the “secretion of KRS variant compared with WT” value (HCT116 cells [1]) was “reduced”, the “cleavage of KRS variant compared with WT” value (HCT116 cells [8]; GFP-KRS variant overexpressed in HCT116 cells, serum starvation 1 hr) was “reduced” and the “binding of KRS variant with syntenin-1 compared with WT” value (KRS and syntenin-1 [2]) was “less”. For the same compound, the “BiFC fluorescence (KRS-syntenin binding)” value (KRS and syntenin-1 [3]) was “not observed” and the “exosome secretion of KRS variant compared with WT” value (HCT116 cells [4]) was “significantly reduced”.
For Z-VAD-DQMD [caspase-3 inhibitor], the “KRS secretion after caspase inhibitor treatment” value (HCT116 cells [1]) was “only caspase-8 inhibitor inhibited KRS secretion”.
For COC(=O)C[C@H](NC(=O)[C@H](C)NC(=O)[C@@H](NC(=O)OCc1ccccc1)C(C)C)C(=O)CF [pan-caspase inhibitor, Z-VAD-FMK] (Cbz-Val-Ala-Asp(OMe)-CH2F), the “KRS secretion after caspase inhibitor treatment” value (HCT116 cells [1]) was “reduced” and the “KRS cleavage after caspase inhibitor treatment” value (HCT116 cells [8]; GFP-KRS overexpressed cells, serum starvation media, Z-VAD-FMK 14 uM, 1 hr) was “reduced”.
